Assays:
[1] = system: PANC-1 subcutaneous pancreatic tumor; test: Subcutaneous PANC-1 xenograft in nude mice; assay type: in vivo; conditions: AA oral gavage daily, GEM intraperitoneal twice a week, n=5, FIG. 32
Protocol: In particular, the xenograft model was established with six to eight-week-old male nude mice (J:NU-Foxn1nu) purchased from The Jackson Laboratory (Bar Harbor, ME). […] The pancreatic cancer tumor was injected subcutaneously into the left flank of each mouse with 4×10^6 PANC-1 cells suspended in 100 μl of serum-free media with 50% […] ® matrix to establish a subcutaneous pancreatic tumor.
Mice were observed three times daily for the first seven days and tumor xenograft was confirmed by the presence of the tumor. […] Tumor volume and mice weight were measured every fifth day. Tumor volume was established by measuring length and width; the volume formula used was the modified ellipsoid volume formula (½ length×width 2).
For AA and control groups, treatment was given by oral gavage. AA treatment was made from a combination of histidine (44 mg/ml) and isoleucine (22 mg/ml) dissolved in PBS. For the two groups with AA, oral gavage treatment was administered daily with 200 μl AA treatment using a 20 ga polypropylene feeding tube attached to a syringe. For the control group, oral gavage treatment was administered using the same method except with 200 μl PBS. For the GEM and AA+GEM groups, GEM was given by intraperitoneal injection. GEM groups were injected twice a week with 200 μl of GEM (15 mg/ml) dissolved in PBS. All treatments were administered for sixty days. […]

[2] = system: PANC-1 and MIA PaCa-2 (malignant pancreas epithelial) cells; test: Cell viability / cytotoxicity (CCK-8) on PDAC tumor cells; assay type: cell-based, human; conditions: for cytotoxic efficacy on tumor cells / viability dose response of tumor cells: individual amino acid, 48 hours, FIGS. 7, 8
Protocol: (§1) Malignant pancreatic cell lines (PANC-1 and MIA PaCa-2) and nonmalignant human pancreas cell line (HPNE) were obtained from the American Type Culture Collection (Manassas, Virginia). The cells were cultured in DMEM medium (HYCLONE™ sera, available from GE Healthcare Life Sciences) with HPNE cells having 0.1 ng/ml EGF (Novus Biologicals, USA) included. All cultures were supplemented with 10% fetal bovine serum (FBS, Life Technology, Thermo Fisher Scientific Inc.), penicillin (1 U), and streptomycin (1 μg/ml). All cells were maintained in a humidified incubator with 5% CO2 at 37° C. All cell lines were cultured in triplicate under the same conditions, then harvested to collect independent exosome samples. Cells were seeded in 96-well plates at a density of 10^4 cells/well. After 24 hours, culture medium with increasing concentrations of treatment was added to the treatment group for 48 hours. Cell viability was accessed by Cell Counting Kit-8 (CCK-8; Dojindo Laboratories) following the manufacturer's instructions. Briefly, a mixture of 10 μl of CCK-8 and 190 μl media was added into each well and the cells were incubated for another 1 hour. The absorbance of each well was measured at 450 nm using a microplate reader. Each experiment was repeated six times.

[3] = pH change of the media caused by amino acid addition; assay type: physicochemical; conditions: culture media, FIG. 6
[4] = system: hTert-HPNE (nonmalignant pancreas epithelial) cells; test: Cell viability / cytotoxicity (CCK-8) on nontumor cells; assay type: cell-based, human; conditions: individual amino acid, 48 hours, FIGS. 7, 8
Protocol: as §1

| SMILES | antitumor efficacy (tumor volume) [1] | time-dependent cytotoxicity to tumor cells ([2]; AA compared with GEM, FIG. 13) | pH change caused by amino acid addition [3] | cell viability of nontumor cells [4] | cytotoxic efficacy on tumor cells [2] | viability dose response of tumor cells [2] |
| --- | --- | --- | --- | --- | --- | --- |
| Nc1ccn([C@@H]2O[C@H](CO)[C@@H](O)C2(F)F)c(=O)n1 [GEM, gemcitabine, reference compound] | showed antitumor efficacy | faster efficacy and is more tumoricidal effective | – | – | – | – |
| N=C(N)NCCC[C@H](N)C(=O)O [arginine, reference compound] | – | – | significant pH change | – | – | – |
| N[C@@H](CS)C(=O)O [cysteine, reference compound] | – | – | significant pH change | – | – | – |
| N[C@@H](Cc1c[nH]cn1)C(=O)O [histidine] | – | – | trivial impact | no significant difference in cell viability | selective cytotoxic efficacy | monotonic dose response |
| CC[C@H](C)[C@H](N)C(=O)O [isoleucine] | – | – | trivial impact | no significant difference in cell viability | selective cytotoxic efficacy | monotonic dose response |

— patent US20250325520A1, “Methods for Targeting Cancer Cells Using Amino Acids” (University of Denver, priority 2024, published 2025)
